From patent US20260231954A1, “PESTICIDAL ENZYMES FOR USE ON NEMATODES, INSECTS, AND MOLLUSKS” (priority 2023, published 2026)

What was measured:
[1] = system: soybean cyst nematode (SCN); assay: SCN reproduction after application of enzyme or recombinant strain to soil; assay type: in vivo, Heterodera glycines; conditions: Table 33; for % Comparison to Control: first figure, water control = 100%
Procedure: To determine the efficacy of nematicidal enzymes applied to soil, a controlled environment trial was performed with 7-day old soybean plants (variety 2830E3) grown in pots. Enzymes were produced as described in Example 2. Prior to inoculation, 0.5 mL of neutral protease (SEQ ID NO: 127), esterase B (SEQ ID NO: 89), or chitinase 19F (SEQ ID NO: 182) free enzyme solution was applied to the soil around the base of each plant, or 0.5 mL of water was applied for the control (30 plants per treatment). Then, hatched SCN juveniles were applied to the soil around each plant as described in Example 2, and three weeks later, cysts per gram of root tissue was determined as described in Example 2. The data was analyzed as in Example 2 and appears in Tables 33 and 34.
To determine the efficacy of recombinant strains applied to soil, a controlled environment trial was performed as described in Example 18 above (Reduction of soybean cyst nematode reproduction by enzymes applied to soil), with the exception that a recombinant strain expressing neutral protease (SEQ ID NO: 127) was applied instead of a free enzyme solution. The recombinant strain was produced as in Example 3, and the treatment applied to soil as a whole cell broth.

[2] = system: Diamondback moth (Plutella xylostella); assay: Diet-surface overlay (DSO) bioassay on Diamondback moth; assay type: in vivo; conditions: number of individuals, n = 16
Procedure: (§1) Diet-surface overlay bioassays are conducted with artificial diet mixes without antibiotics in 1.5 cm^2 cell bioassay trays(s). Artificial diets are commercially available from Southland Products Inc. Diets were prepared by dispersing 0.5 mL of molten diet to each 1.5 cm^2 cell. After solidification, 0.1 mL enzyme treatments were dispersed on top of diet in each cell and the tray was gently rocked in an orbital shaker to spread the liquid uniformly over the diet surface. Trays were placed under clean airflow until the surface of each cell was uniformly dried. One or two 16-cell sections were used per treatment (the number in larvae treated was 16 or 32).
(§2) One healthy first instar larva was placed into each treatment cell, each 16-cell section was covered with a re-sealable lid and incubated at 27° C. and light-dark period of 16:8 hrs. After 7 days, and according to the species, the number of individuals in the following developmental categories was recorded.
(§3) Diamondback moth (Plutella xylostella): Dead Larva (lack of movement), Larva Stage I (≤50% relative size), Larva Stage II (100% relative size, full size), Early Pupa (light green color), Late Pupa (light-dark brown color), and Adult.
(§4) Negative/untreated controls were treated with filtered water and positive controls were treated with lethal doses of Bacillus thuringiensis subsp. Kurstaki (Btk) spores at 1000 ppm.

[3] = system: soybean cyst nematode (SCN, Heterodera glycines); assay: Soybean cyst nematode reproduction on soybean after seed treatment, controlled environment (cysts per gram of root tissue or per plant); assay type: in vivo
[4] = system: Btk resistant Diamondback moth; assay: Diet-surface overlay (DSO) bioassay on Btk resistant Diamondback moth; assay type: in vivo, Plutella xylostella; conditions: number of individuals, n = 32, 7 days
Procedure: as §1, §2, §3, §4
However, both neutral proteases reduced the number of individuals reaching adult stage.
The effect of lipase (10× enzyme rate) and free lipases were tested on a Diamondback Moth Btk resistant strain. Free Lipases from Burkholderia cepacia (Bc) and Pseudomonas fluorescens (Pf) were tested along with Lipase (SEQ ID NO: 76) and the results are shown below in Table 45.

[5] = system: Meloidogyne incognita; assay: Root gall index of soybeans inoculated with Meloidogyne incognita after seed treatment (greenhouse); assay type: in vivo; conditions: for % Comparison to Control: first figure, base seed treatment control = 100%
Procedure: Nematicidal neutral protease (SEQ ID NO: 127) was produced by fermentation in Bacillus subtilis. The enzyme was cloned into Bacillus expression plasmid p1797 with isopropyl β-d-1-thiogalactopyranoside (IPTG)-inducible expression. The plasmid was transformed into B. subtilis, and this strain was grown in rich media until an optical density (OD) of 0.2-0.5 was reached. Then, enzyme expression was induced by addition of 1 mM IPTG. Following the culture harvest, cells were removed by filtration through a […] filter. Culture filtrate containing secreted protease was then used for seed treatment. Bacillus subtilis fermentation filtrate expressing neutral protease was mixed directly into a seed treatment slurry containing colorant and Peridiam® 1006 […] at a rate of 2 fl oz per unit of seed and coated onto Bossier variety soybean seed.
To investigate the effects of neutral protease on galling due to root knot nematode infestation, treated seeds were planted in soil in cone-tainers in a greenhouse. Seven days after planting, each cone-tainer was inoculated with 1250 eggs from the Dick Meloidogyne incognita population. Eight weeks post-inoculation, roots were excavated and washed. Root galling was visually rated on a gall index (GI) scale of 1-5 (1=<10% GI; 2=11-20%, 3=21-30%, 4=31-40%, 5=>40% GI). Fifteen plants were evaluated per treatment and their average root gall ratings were recorded.

With “Neutral protease (SEQ ID NO: 127): Bacillus sp. B16 neutral protease produced by fermentation in Bacillus subtilis; culture filtrate containing the secreted enzyme” the “% Comparison to Control (figure in parentheses)” value ([1]; change vs water control) was −32%, the “% Comparison to Control” value [1] was “reduced SCN reproduction” and the “% Comparison to Control” value ([1]; listed as Neutral protease free enzyme (SEQ ID NO: 127)) was 68%. For the same substance, the “Average cysts per g of root tissue” value ([1]; free enzyme 0.5 mL/plant to soil, soybean 2830E3, 3 weeks) was 35.7 cysts per g of root tissue, the “Dead Larva” value ([2]; Table 41, proteases, after 7 days, rate in U/mL diet column) was 2 and the Adult ([2]; Table 41, 7 days) was 0. The “Early Pupa” value ([2]; Table 41, 7 days) was 8, the “Larva Stage I” value ([2]; Table 41, 7 days) was 0 and the “Larva Stage II” value ([2]; Table 41, 7 days) was 0. The “Late Pupa” value ([2]; Table 41, 7 days) was 6, the “Average cysts per g of root tissue” value ([3]; Table 11, free enzyme seed treatment 2 fl. oz. per unit of seed (ILEVO 0.15 mg active ingredient per seed), soybean P18A98X, 3 weeks after inoculation) was 20.1 cysts per g of root tissue and the “Average cysts per g of root tissue” value ([3]; Table 14, seed treated with whole cell broth, soybean P18A98X) was 40.3 cysts per g of root tissue. The “% Comparison to Control (figure in parentheses)” value ([3]; Table 38, change vs base control, liquid 2 fl oz/unit, ILEVO) was −42%, the “Average cysts per g of root tissue” value ([3]; Table 38, liquid formulation 2 fl oz/unit, ILEVO positive control, soybean 2830E3) was 208.8 cysts per g of root tissue and the “Dead Larva” value ([4]; Table 42, proteases at 10x rate) was 4. The Adult ([4]; Table 42) was 0, the “Early Pupa” value ([4]; Table 42) was 6 and the “Larva Stage I” value ([4]; Table 42) was 0. For the same substance, the “Larva Stage II” value ([4]; Table 42) was 0, the “Late Pupa” value ([4]; Table 42) was 22 and the “% Comparison to Control (figure in parentheses)” value ([5]; Table 26, change vs base control) was −26%. For the same substance, the “% Comparison to Control” value ([5]; Table 26) was “reduction of average visual gall rating”, the “% Comparison to Control” value ([5]; Table 26, listed as Neutral protease seed treatment (SEQ ID NO: 127)) was 74% and the “Average root gall rating” value ([5]; gall index scale of 1-5, seed treatment 2 fl oz per unit of seed, Bossier soybean, 8 weeks post-inoculation, 15 plants) was 3.5.
